The numbers were not newly measured in US20080066744A1, “PROCESS FOR PRODUCING METERED DOSE INHALER FORMULATIONS” (Schering Corporation, priority 2002, published 2008), which cites them from elsewhere.

Read-outs that look alike come from different tables or passages of the source.

Turning to `C[C@@H]1C[C@H]2[C@@H]3CCC4=CC(=O)C=C[C@]4(C)[C@@]3(Cl)[C@@H](O)C[C@]2(C)[C@@]1(OC(=O)c1ccco1)C(=O)CCl` [Mometasone furoate, 9,21-Dichloro-11(beta), 17-dihydroxy-16(alpha)-methylpregna-1,4-diene-3,20-dione 17-(2 furoate)], the solubility entry is “soluble” (in acetone); “soluble” (in chloroform); “slightly soluble” (in ethanol); “slightly soluble” (in isopropanol); “slightly soluble” (in methanol); “freely soluble” (in tetrahydrofuran). Under “in water”, the solubility result was “practically insoluble”.

Regarding “(alpha) ^1[(tert-Butylamino)methyl]4-hydroxy-m-xylene-(alpha),(alpha)′-diol sulfate (2:1)(salt) [Albuterol sulfate]”, the solubility entry reads like this: (in ethanol) “slightly soluble”; (in water) “soluble”.
